For orientation: DC50 means the midpoint of the concentration-degradation curve.

The first assay deals with T1, IRAK4 (Homo sapiens, UniProt Q9NWZ3).
T1 sequence (Q9NWZ3 1-460): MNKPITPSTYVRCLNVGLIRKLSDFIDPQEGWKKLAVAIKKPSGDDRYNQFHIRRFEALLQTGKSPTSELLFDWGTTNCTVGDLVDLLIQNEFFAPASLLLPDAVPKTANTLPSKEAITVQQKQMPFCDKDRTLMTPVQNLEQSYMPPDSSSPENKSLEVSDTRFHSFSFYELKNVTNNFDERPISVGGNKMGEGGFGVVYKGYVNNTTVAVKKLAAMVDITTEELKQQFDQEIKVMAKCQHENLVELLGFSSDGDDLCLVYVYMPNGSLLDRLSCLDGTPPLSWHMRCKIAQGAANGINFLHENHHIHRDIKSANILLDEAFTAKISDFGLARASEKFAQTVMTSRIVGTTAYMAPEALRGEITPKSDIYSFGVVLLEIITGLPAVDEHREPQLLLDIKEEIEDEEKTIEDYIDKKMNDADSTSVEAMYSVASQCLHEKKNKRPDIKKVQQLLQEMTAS
Nature of the assay: Degradation of IRAK4 in SU-DHL-2 cells (flow cytometry). Type of assay: cell-based. More on the design: The degradation level of IRAK4 protein in SU-DHL-2 cell line by the compounds was detected by flow cytometry; endogenous in cells; host or cells: SU-DHL-2; OCI-LY3. The following applies: SU-DHL-2 cells, 24 hours incubation; read-out: SU-DHL-2 DC50. The protocol: The degradation level of IRAK4 protein in SU-DHL-2 cell line by the compounds was detected by flow cytometry.
Step 2: On day 1, the cells were seeded at a density of 2 × 10^5 cells per well in 100 µL in a 96-well plate. The compounds were dissolved in DMSO to a final concentration of 10 mM, and then diluted with culture medium at a 1:5 concentration gradient to prepare 10 concentrations. The diluted solutions were added to the cells to obtain a maximum final concentration of 2 µM. Wells containing cells treated with 0.1% DMSO served as the […] The cells were incubated at 37°C in a 5% CO2 incubator for 24 hours.
Step 3: After centrifugation, the cells were washed with FACS buffer. The cells were stained for viability discrimination using the LIVE/DEAD™ Fixable Blue Dead Cell Stain Kit, and surface staining of monocytes was performed with PE Mouse Anti-Human CD14, followed by incubation at 4°C for 30 minutes.
Step 4: After centrifugation, the cells were washed with FACS buffer. Fix buffer I, equal in volume to the cultured cells, was added, and the cells were fixed at 37°C for 10 minutes.
Step 5: After centrifugation, the cells were washed with FACS buffer. 150 µL of Perm III reagent was added, and the cells were incubated at 4°C for 30 minutes to permeabilize the membranes. After centrifugation, the cells were washed with FACS buffer.
Flow cytometry analysis was performed using a flow cytometer.
The flow cytometry data were analyzed using Flowjo software. Data presentation and DC50 (half-maximal degradation concentration) calculation were performed using Prism 8.0.2 (GraphPad).
A general note: Flow cytometry measures light scatter and fluorescence of single cells or particles in a stream.
Take `Cn1c(=O)n(C2CCC(=O)NC2=O)c2cccc(C#CCOC3CCC(CN4CCC5(CCC(n6cc(NC(=O)c7cnn8ccc(N9C[C@H]%10C[C@@H]9CO%10)nc78)c(C(F)F)n6)CC5)CC4)CC3)c21` (stereo partly shown) [Example 46]: the 50% degradation concentration (DC50) was found to be 13 nM.
As to `Cn1c(=O)n(C2CCC(=O)NC2=O)c2cccc(C#CCOC[C@H]3C[C@H]3CN3CCC4(CC3)CC(n3cc(NC(=O)c5cnn6ccc(N7C[C@H]8C[C@@H]7CO8)nc56)c(C(F)F)n3)C4)c21` (relative stereo) [Example 44], the DC50 turned out to be 5.4 nM.
On to `Cn1c(=O)n(C2CCC(=O)NC2=O)c2cccc(C#CCOCCN3CCC4(CCC(n5cc(NC(=O)c6cnn7ccc(N8C[C@H]9C[C@@H]8CO9)nc67)c(C(F)F)n5)CC4)CC3)c21` (stereo partly shown) [Example 37], for which the DC50 was 24 nM.
Still for that read-out and setting: the value for `Cn1c(=O)n(C2CCC(=O)NC2=O)c2cccc(C#CCOC3CC(CN4CCC5(CCC(n6cc(NC(=O)c7cnn8ccc(N9C[C@H]%10C[C@@H]9CO%10)nc78)c(C(F)F)n6)CC5)CC4)C3)c21` (stereo partly shown) [Example 40] was 33 nM.

The assay is the same for the next values; noted with them: read-out: SU-DHL-2 DC50.
Take `Cn1c(=O)n(C2CCC(=O)NC2=O)c2cccc(C#CC(C)(C)N3CCC(CN4CCC5(CC4)CC(n4cc(NC(=O)c6cnn7ccc(N8C[C@H]9C[C@@H]8CO9)nc67)c(C(F)F)n4)C5)CC3)c21` (stereo partly shown) [Example 34]: the half-maximal degradation concentration (DC50) was found to be 21 nM.
On to `Cn1c(=O)n(C2CCC(=O)NC2=O)c2cccc(C#CCN3CC[C@H](C(=O)N4CCC5(CC4)CC(n4cc(NC(=O)c6cnn7ccc(N8C[C@H]9C[C@@H]8CO9)nc67)c(C(F)F)n4)C5)C3)c21` (stereo partly shown) [Example 59], for which the half-maximal degradation concentration (DC50) amounted to 3 nM.
The same measure, in the same setting: the value for `Cn1c(=O)n(C2CCC(=O)NC2=O)c2cccc(C#CC(C)(C)C(=O)N3CCC4(CC3)CC(n3cc(NC(=O)c5cnn6ccc(N7C[C@H]8C[C@@H]7CO8)nc56)c(C(F)F)n3)C4)c21` (stereo partly shown) [Example 70] was 16 nM; that for `Cn1c(=O)n(C2CCC(=O)NC2=O)c2cccc(C#CCOC3CCN(CC4CCC5(CC4)CC(n4cc(NC(=O)c6cnn7ccc(N8C[C@H]9C[C@@H]8CO9)nc67)c(C(F)F)n4)C5)CC3)c21` (stereo partly shown) [Example 61] was 4 nM; that for `COc1cc2nn(C3CCC4(CC3)CCN(C3CC(OCC#Cc5cccc6c5n(C)c(=O)n6C5CCC(=O)NC5=O)C3)CC4)cc2cc1C(=O)Nc1cnc2cccnn12` (stereo not shown) [Example 64] was 1 nM.
As to `COc1cc2nn(C3CC4(CCN(CC5CC(OCC#Cc6cccc7c6n(C)c(=O)n7C6CCC(=O)NC6=O)C5)CC4)C3)cc2cc1C(=O)Nc1cnc2cccnn12` (stereo not shown) [Example 65], the DC50 amounted to 2.8 nM.
The same measure, in the same setting: the value for `Cn1c(=O)n(C2CCC(=O)NC2=O)c2cccc(C#CCOC3CCC(N4CCC5(CC4)CC(n4cc(NC(=O)c6cnn7ccc(N8C[C@H]9C[C@@H]8CO9)nc67)c(C(F)F)n4)C5)CC3)c21` (stereo partly shown) [Example 33] was 6.5 nM.
Still for that read-out and setting: the value for `Cn1c(=O)n(C2CCC(=O)NC2=O)c2cccc(C#CCOC3CN(C(=O)N4CCC5(CCC(n6cc(NC(=O)c7cnn8ccc(N9C[C@H]%10C[C@@H]9CO%10)nc78)c(C(F)F)n6)CC5)CC4)C3)c21` (stereo partly shown) [Example 39] was 17 nM; that for `Cn1c(=O)n(C2CCC(=O)NC2=O)c2cccc(C#CC(C)(C)N3CC[C@@H](C(=O)N4CCC5(CC4)CC(n4cc(NC(=O)c6cnn7ccc(N8C[C@H]9C[C@@H]8CO9)nc67)c(C(F)F)n4)C5)C3)c21` (stereo partly shown) [Example 54] was 17 nM.
Still for that read-out and setting: the value for `Cn1c(=O)n(C2CCC(=O)NC2=O)c2cccc(C#CC(C)(C)N3CC(C(=O)N4CCC5(CC4)CC(n4cc(NC(=O)c6cnn7ccc(N8C[C@H]9C[C@@H]8CO9)nc67)c(C(F)F)n4)C5)C3)c21` (stereo partly shown) [Example 50] was 4 nM; that for `Cn1c(=O)n(C2CCC(=O)NC2=O)c2cccc(C#CCOC3CCN(C(=O)N4CCC5(CCC(n6cc(NC(=O)c7cnn8ccc(N9C[C@H]%10C[C@@H]9CO%10)nc78)c(C(F)F)n6)CC5)CC4)CC3)c21` (stereo partly shown) [Example 43] was 61 nM; that for `Cn1c(=O)n(C2CCC(=O)NC2=O)c2cccc(C#CCC3CCC(N4CCC5(CC4)CC(n4cc(NC(=O)c6cnn7ccc(N8C[C@H]9C[C@@H]8CO9)nc67)c(C(F)F)n4)C5)CC3)c21` (stereo partly shown) [Example 35] was 5 nM.
Take `COc1cc2nn(C3CCC4(CC3)CCN(CC3CCN(c5ccc6c(c5)C(=O)N(C5CCC(=O)NC5=O)C6=O)CC3)CC4)cc2cc1NC(=O)c1cnc2cccnn12` (stereo not shown) [Example 67]: the DC50 is 45 nM.
Still for that read-out and setting: the value for `COc1cc2nn(C3CCC4(CC3)CCN(CC3CCN(c5ccc6c(c5)C(=O)N(C5CCC(=O)NC5=O)C6=O)CC3)CC4)cc2cc1NC(=O)c1cnn2cccnc12` (stereo not shown) [Example 48] was 1 nM; that for `COc1cc2nn(C3CCC4(CC3)CCN(CC3CCN(c5ccc6c(c5)C(=O)N(C5CCC(=O)NC5=O)C6=O)CC3)CC4)cc2cc1C(=O)Nc1cnc2cccnn12` (stereo not shown) [Example 47] was 0.5 nM; that for `Cn1c(=O)n(C2CCC(=O)NC2=O)c2cccc(C#CCOC3CCN(CC4CCC5(CC4)CCC(n4cc(NC(=O)c6cnn7ccc(N8C[C@H]9C[C@@H]8CO9)nc67)c(C(F)F)n4)CC5)CC3)c21` (stereo partly shown) [Example 68] was 24 nM.
In the case of `Cn1c(=O)n(C2CCC(=O)NC2=O)c2cccc(C#CCN3CC(C(=O)N4CCC5(CC4)CC(n4cc(NC(=O)c6cnn7ccc(N8C[C@H]9C[C@@H]8CO9)nc67)c(C(F)F)n4)C5)C3)c21` (stereo partly shown) [Example 58], the half-maximal degradation concentration (DC50) is 5 nM.
On the same count and under the same terms, the value for `Cn1c(=O)n(C2CCC(=O)NC2=O)c2cccc(C#CCOC3CC(N4CCC5(CCC(n6cc(NC(=O)c7cnn8ccc(N9C[C@H]%10C[C@@H]9CO%10)nc78)c(C(F)F)n6)CC5)CC4)C3)c21` (stereo partly shown) [Example 38] was 68 nM.
The same measure, in the same setting: the value for `Cn1c(=O)n(C2CCC(=O)NC2=O)c2cccc(C#CCOC34CCC(C(=O)N5CCC6(CC5)CC(n5cc(NC(=O)c7cnn8ccc(N9C[C@H]%10C[C@@H]9CO%10)nc78)c(C(F)F)n5)C6)(CC3)CC4)c21` (stereo partly shown) [Example 51] was 7 nM.
Still for that read-out and setting: the value for `Cn1c(=O)n(C2CCC(=O)NC2=O)c2cccc(C#CCO[C@H]3CC[C@@H](C(=O)N4CCC5(CC4)CC(n4cc(NC(=O)c6cnn7ccc(N8C[C@H]9C[C@@H]8CO9)nc67)c(C(F)F)n4)C5)CC3)c21` (stereo partly shown) [Example 72] was 4 nM; that for `Cn1c(=O)n(C2CCC(=O)NC2=O)c2cccc(C#CC(C)(C)N3CC[C@H](C(=O)N4CCC5(CC4)CC(n4cc(NC(=O)c6cnn7ccc(N8C[C@H]9C[C@@H]8CO9)nc67)c(C(F)F)n4)C5)C3)c21` (stereo partly shown) [Example 55] was 7 nM; that for `Cn1c(=O)n(C2CCC(=O)NC2=O)c2cccc(C#CCOc3ccc(CN4CCC5(CC4)CC(n4cc(NC(=O)c6cnn7ccc(N8C[C@H]9C[C@@H]8CO9)nc67)c(C(F)F)n4)C5)cc3)c21` (stereo partly shown) [Example 57] was 22 nM.
As for `Cn1c(=O)n(C2CCC(=O)NC2=O)c2cccc(C#CCO[C@H]3CC[C@H](C(=O)N4CCC5(CC4)CC(n4cc(NC(=O)c6cnn7ccc(N8C[C@H]9C[C@@H]8CO9)nc67)c(C(F)F)n4)C5)CC3)c21` (stereo partly shown) [Example 71], the 50% degradation concentration (DC50) turned out to be 5 nM.
As for `Cn1c(=O)n(C2CCC(=O)NC2=O)c2cccc(C#CCN3CCC(CN4CCC5(CC4)CC(n4cc(NC(=O)c6cnn7ccc(N8C[C@H]9C[C@@H]8CO9)nc67)c(C(F)F)n4)C5)CC3=O)c21` (stereo partly shown) [Example 62], the DC50 worked out at 1.2 nM.

The values above are taken from EP4656640A1, “IRAK4 DEGRADER AND USE THEREOF” (Shanghai Qilu Pharmaceutical Research and Development …, priority 2023, dated 2024).
